Experimental data reported in PubChem BioAssay AID1919009 (Molecular Pharmacology Branch, DTP, NCI, 2023).

Test system: K24384-001-R-PDC complex spheroid growth
Assay: Anticancer human tumor K24384-001-R-PDC patient-derived pancreatic adenocarcinoma cell line growth inhibition [AhR]
Settings: for IC50: curve of first compound; for viability, T/C: stronger effect = lower value
Procedure, shortened: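 Spheroids combined tumor cells with HUVEC endothelial cells and human MSCs as stroma. AhR antagonists were paired with standard or investigational drugs, each dosed in half-log steps down from near clinical Cmax, or from 10 microM where Cmax was unknown.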
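Wherever viability, T/C is given: percent of DMSO vehicle-treated spheroid viability set as 100%.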

SMILES: O=C(c1cc(Cc2n[nH]c(=O)c3ccccc23)ccc1F)N1CCN(C(=O)C2CC2)CC1 + Cc1ccccc1N=Nc1ccc(NC(=O)c2ccnn2C)c(C)c1
- IC50 (second compound 0.1 µM): > 10 µM
- IC50 (second compound 0.316 µM): > 10 µM
- IC50 (second compound 1 µM): > 10 µM
- IC50 (second compound 3.16 µM): > 10 µM
- IC50 (second compound 10 µM): > 10 µM
- viability, T/C (second compound 0.1 µM, first compound 0.0316 µM): 86.1%
- viability, T/C (second compound 0.1 µM, first compound 0.1 µM): 94.5%
- viability, T/C (second compound 0.1 µM, first compound 0.316 µM): 99.4%
- viability, T/C (second compound 0.1 µM, first compound 1 µM): 83.3%
- viability, T/C (second compound 0.1 µM, first compound 3.16 µM): 75.8%
- viability, T/C (second compound 0.1 µM, first compound 10 µM): 79.2%
- viability, T/C (second compound 0.316 µM, first compound 0.0316 µM): 99.9%
- viability, T/C (second compound 0.316 µM, first compound 0.1 µM): 97.2%
- viability, T/C (second compound 0.316 µM, first compound 0.316 µM): 79.4%
- viability, T/C (second compound 0.316 µM, first compound 1 µM): 86.2%
- viability, T/C (second compound 0.316 µM, first compound 3.16 µM): 85.8%
- viability, T/C (second compound 0.316 µM, first compound 10 µM): 58%
- viability, T/C (second compound 1 µM, first compound 0.0316 µM): 89.9%
- viability, T/C (second compound 1 µM, first compound 0.1 µM): 109%
- viability, T/C (second compound 1 µM, first compound 0.316 µM): 77.4%
- viability, T/C (second compound 1 µM, first compound 1 µM): 81.1%
- viability, T/C (second compound 1 µM, first compound 3.16 µM): 66.2%
- viability, T/C (second compound 1 µM, first compound 10 µM): 63.2%
- viability, T/C (second compound 3.16 µM, first compound 0.0316 µM): 75.9%
- viability, T/C (second compound 3.16 µM, first compound 0.1 µM): 80.6%
- viability, T/C (second compound 3.16 µM, first compound 0.316 µM): 83.2%
- viability, T/C (second compound 3.16 µM, first compound 1 µM): 72.4%
- viability, T/C (second compound 3.16 µM, first compound 3.16 µM): 60.3%
- viability, T/C (second compound 3.16 µM, first compound 10 µM): 51.6%
- viability, T/C (second compound 10 µM, first compound 0.0316 µM): 101%
- viability, T/C (second compound 10 µM, first compound 0.1 µM): 84.1%
- viability, T/C (second compound 10 µM, first compound 0.316 µM): 95.1%
- viability, T/C (second compound 10 µM, first compound 1 µM): 72.9%
- viability, T/C (second compound 10 µM, first compound 3.16 µM): 65.2%
- viability, T/C (second compound 10 µM, first compound 10 µM): 65.8%
